Source: patent publication US20050065195A1, “Oxadiazolyl-biphenylcarboxamides and their use as p38 kinase inhibitors” (priority 2001, published 2005)

Structure (SMILES) | melting point [°C]
COc1ccc(C(=O)Nc2ccc(-c3ccccc3C(C)O)cc2)cc1CCCN(C)C.Cl (stereo not shown) | 224 to 227
CCc1ccc(-c2ccc(NC(=O)c3ccc(OC)c(CCCN(C)C)c3)cc2)cc1 [Example 6, 3-[3-(Dimethylamino)propyl]-N-(4′-ethyl[1,1′-biphenyl]-4-yl)-4-methoxybenzamide] | 200 to 202
COc1ccc(C(=O)Nc2ccc(-c3ccc(CO)c(O)c3)cc2)cc1CCCN(C)C [Example 20(b), 3-[3-(Dimethylamino)propyl]-N-[3′-hydroxy-4′-(hydroxymethyl)[1,1′-biphenyl]-4-yl]-4-methoxybenzamide] | 171 to 173
COc1ccc(C(=O)Nc2ccc(-c3ccc(-c4nc(C)no4)cc3C)cc2)cc1CCCN(C)C [Example 71, 3-[3-(Dimethylamino)propyl]-4-methoxy-N-[2′-methyl-4′-(3-methyl-1,2,4-oxadiazol-5-yl)[1,1′-biphenyl]-4-yl]benzamide] | 166 to 167

Second part, the molecule after the results:

melting point [°C] | Structure (SMILES)
264 to 266 | COc1ccc(C(=O)Nc2ccc(-c3ccc(C(C)=O)cc3)c(C)c2)cc1CCCN(C)C.Cl
236 to 240 | COc1ccc(C(=O)Nc2ccc(-c3ccc(C(C)=O)cc3)cc2)cc1CCN(C)C [1(b), N-(4′-Acetyl[1,1′-biphenyl]-4-yl)-3-[2-(dimethylamino)ethyl]-4-methoxybenzamide]
68 to 70 | COc1ccc(C(=O)Nc2ccc(-c3ccc(CO)cc3C)c(C)c2)cc1CCCN(C)C [Example 41, 3-[3-(Dimethylamino)propyl]-N-[4′-(hydroxymethyl)-2,2′-dimethyl[1,1′-biphenyl]-4-yl]-4-methoxybenzamide]
